In PubChem BioAssay AID270 (DTP/NCI, 2004) one finds T/C data, which are given here for 10 compounds.

Records with an inconclusive call do not appear.

For this experiment, the system named is BDF1 mice, s.c. Lewis lung carcinoma, T/C %. Kind of experiment: NCI In Vivo Anticancer Drug Screen. Data for tumor model Lewis Lung Carcinoma (subcutaneous) in B6D2F1 (BDF1) mice. A digest of the protocol: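 The value reflects a ratio in which the treated cohort's survival time or tumour size is compared against mice receiving only vehicle.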
Where [1] appears, read: endpoint: median survival time, dose: 12.5 mg/kg/injection, schedule: Q01DX009 (ip), vehicle: Klucel (hydroxypropylcellulose) (HPC), higher = longer survival.
Where [2] appears, read: endpoint: median survival time, dose: 25.0 mg/kg/injection, schedule: Q01DX009 (ip), vehicle: Klucel (hydroxypropylcellulose) (HPC), higher = longer survival.
Setting [3] is: endpoint: median survival time, dose: 50.0 mg/kg/injection, schedule: Q01DX009 (ip), vehicle: Klucel (hydroxypropylcellulose) (HPC), higher = longer survival.

On to `C[C@]12CC[C@H]3[C@@H](CC[C@]4(O)C[C@@H](O)CC[C@]34C=O)[C@@]1(O)CC[C@@H]2C1=CC(=O)OC1`, for which the T/C is 87 % of control (endpoint: median survival time, dose: 3.12 mg/kg/injection, schedule: Q01DX009 (ip), vehicle: Klucel (hydroxypropylcellulose) (HPC), higher = longer survival); 113 % of control under setting [1]; 116 % of control under setting [2].

`O=C1N(Cl)C(=O)C(c2ccc(Cl)cc2)(c2ccc(Cl)cc2)N1Cl`: the T/C (endpoint: mean tumor weight, dose: 17.0 mg/kg/injection, schedule: Q01DX011 (ip), vehicle: other, higher = larger tumour) is 84 % of control; the T/C (endpoint: mean tumor weight, dose: 33.0 mg/kg/injection, schedule: Q01DX011 (ip), vehicle: other, higher = larger tumour) was 68 % of control; the T/C (endpoint: mean tumor weight, dose: 50.0 mg/kg/injection, schedule: Q01DX011 (ip), vehicle: other, higher = larger tumour) is 23 % of control; the T/C (endpoint: mean tumor weight, dose: 75.0 mg/kg/injection, schedule: Q01DX011 (ip), vehicle: other, higher = larger tumour) was 25 % of control; the T/C (endpoint: mean tumor weight, dose: 112.0 mg/kg/injection, schedule: Q01DX011 (ip), vehicle: other, higher = larger tumour) was 36 % of control; the T/C (endpoint: mean tumor weight, dose: 224.0 mg/kg/injection, schedule: Q01DX011 (ip), vehicle: other, higher = larger tumour) was 52 % of control. For the same compound, the T/C under setting [1] was 95 % of control, the T/C under setting [2] was 87 % of control and the T/C under setting [3] was 101 % of control.

Consider `O=NN(CCCl)C(=O)N[C@H]1CCCC[C@H]1Cl`, for which the T/C is, setting by setting: (endpoint: median survival time, dose: 22.5 mg/kg/injection, schedule: Q01DX001 (ip), vehicle: Klucel (hydroxypropylcellulose) (HPC), higher = longer survival) 106 % of control; (endpoint: median survival time, dose: 360.0 mg/kg/injection, schedule: Q01DX001 (ip), vehicle: Klucel (hydroxypropylcellulose) (HPC), higher = longer survival) 102 % of control; (endpoint: median tumor weight (est.), dose: 45.0 mg/kg/injection, schedule: Q01DX001 (ip), vehicle: carboxymethylcellulose (CMC), higher = larger tumour) 89 % of control; (endpoint: median tumor weight (est.), dose: 90.0 mg/kg/injection, schedule: Q01DX001 (ip), vehicle: carboxymethylcellulose (CMC), higher = larger tumour) 6 % of control; (endpoint: median tumor weight (est.), dose: 130.0 mg/kg/injection, schedule: Q01DX001 (ip), vehicle: carboxymethylcellulose (CMC), higher = larger tumour) 8 % of control.

In the case of `COc1ccc2c(c1)CC[C@@H]1[C@@H]2CC[C@@]2(C)[C@H]1CC[C@@]2(O)C(F)=C(F)F`, under “endpoint: median survival time, dose: 12.5 mg/kg/injection, schedule: Q01DX009 (sc), vehicle: steriod suspending solution, higher = longer survival”, the T/C was 93 % of control.

As for `COc1cc2c(c(OC)c1OC)-c1ccc(OC)c(=O)cc1[C@@H](NC(=O)CF)CC2`, the T/C is, setting by setting: (endpoint: median survival time, dose: 0.04 mg/kg/injection, schedule: Q01DX009 (ip), vehicle: saline with Tween-80, higher = longer survival) 100 % of control; (endpoint: median survival time, dose: 0.09 mg/kg/injection, schedule: Q01DX009 (ip), vehicle: saline with Tween-80, higher = longer survival) 95 % of control; (endpoint: median survival time, dose: 0.18 mg/kg/injection, schedule: Q01DX009 (ip), vehicle: saline with Tween-80, higher = longer survival) 95 % of control.

Turning to `Cc1cc(N(CCCl)CCCl)ccc1C=Nc1cccnc1`, the T/C is 104 % of control under setting [2]; 95 % of control (endpoint: median survival time, dose: 25.0 mg/kg/injection, schedule: Q01DX009 (ip), vehicle: saline with Tween-80, higher = longer survival); 96 % of control under setting [3]; 92 % of control (endpoint: median survival time, dose: 50.0 mg/kg/injection, schedule: Q01DX009 (ip), vehicle: saline with Tween-80, higher = longer survival); 103 % of control (endpoint: median survival time, dose: 100.0 mg/kg/injection, schedule: Q01DX009 (ip), vehicle: Klucel (hydroxypropylcellulose) (HPC), higher = longer survival); 93 % of control (endpoint: median survival time, dose: 100.0 mg/kg/injection, schedule: Q01DX009 (ip), vehicle: saline with Tween-80, higher = longer survival). Besides, the T/C (endpoint: median survival time, dose: 200.0 mg/kg/injection, schedule: Q01DX009 (ip), vehicle: Klucel (hydroxypropylcellulose) (HPC), higher = longer survival) is 98 % of control.

Turning to `CCC(=O)NC1=C(N2CC2)C(=O)C(NC(=O)CC)=C(N2CC2)C1=O`, the T/C by setting is: (endpoint: mean tumor weight, dose: 1.8 mg/kg/injection, schedule: Q01DX011 (ip), vehicle: other, higher = larger tumour) 72 % of control; (endpoint: mean tumor weight, dose: 2.7 mg/kg/injection, schedule: Q01DX011 (ip), vehicle: other, higher = larger tumour) 54 % of control; (endpoint: mean tumor weight, dose: 4.0 mg/kg/injection, schedule: Q01DX011 (ip), vehicle: other, higher = larger tumour) 27 % of control; (endpoint: mean tumor weight, dose: 6.0 mg/kg/injection, schedule: Q01DX011 (ip), vehicle: other, higher = larger tumour) 28 % of control.

For the compound `COc1ccc(-c2oc3ccc(C)cc3c(=O)c2O)cc1`, the T/C by setting is: (endpoint: mean tumor weight, dose: 1.9 mg/kg/injection, schedule: Q01DX011 (ip), vehicle: saline, higher = larger tumour) 91 % of control; (endpoint: mean tumor weight, dose: 3.9 mg/kg/injection, schedule: Q01DX011 (ip), vehicle: saline, higher = larger tumour) 100 % of control; (endpoint: mean tumor weight, dose: 7.8 mg/kg/injection, schedule: Q01DX011 (ip), vehicle: saline, higher = larger tumour) 80 % of control; (endpoint: mean tumor weight, dose: 15.6 mg/kg/injection, schedule: Q01DX010 (ip), vehicle: saline, higher = larger tumour) 71 % of control; (endpoint: mean tumor weight, dose: 15.6 mg/kg/injection, schedule: Q01DX011 (ip), vehicle: saline, higher = larger tumour) 67 % of control; (endpoint: mean tumor weight, dose: 31.3 mg/kg/injection, schedule: Q01DX010 (ip), vehicle: saline, higher = larger tumour) 82 % of control. In addition, the T/C is 81 % of control (endpoint: mean tumor weight, dose: 62.5 mg/kg/injection, schedule: Q01DX010 (ip), vehicle: saline, higher = larger tumour) and 84 % of control (endpoint: mean tumor weight, dose: 125.0 mg/kg/injection, schedule: Q01DX010 (ip), vehicle: saline, higher = larger tumour).

Take `c1ccc2nc3ccccc3c-2cc1`: the T/C (endpoint: mean tumor weight, dose: 125.0 mg/kg/injection, schedule: Q01DX011 (ip), vehicle: saline, higher = larger tumour) was 90 % of control; the T/C (endpoint: mean tumor weight, dose: 250.0 mg/kg/injection, schedule: Q01DX011 (ip), vehicle: saline, higher = larger tumour) is 76 % of control; the T/C (endpoint: mean tumor weight, dose: 500.0 mg/kg/injection, schedule: Q01DX011 (ip), vehicle: saline, higher = larger tumour) is 48 % of control; the T/C (endpoint: mean tumor weight, dose: 1000.0 mg/kg/injection, schedule: Q01DX011 (ip), vehicle: saline, higher = larger tumour) is 56 % of control.

`COC1C(O)=C2C(=O)OC(C)(O)/C=C/C=C\C=C/C=C/C(c3ccccc3)NC(=O)/C=C/C=C/C=C/C=C/C2(C)C1O` (centres undefined): the T/C (endpoint: median survival time, dose: 0.12 mg/kg/injection, schedule: Q01DX009 (ip), vehicle: saline, higher = longer survival) is 92 % of control; the T/C (endpoint: median survival time, dose: 0.25 mg/kg/injection, schedule: Q01DX009 (ip), vehicle: saline, higher = longer survival) is 95 % of control; the T/C (endpoint: median survival time, dose: 0.5 mg/kg/injection, schedule: Q01DX009 (ip), vehicle: saline, higher = longer survival) is 100 % of control; the T/C (endpoint: median survival time, dose: 0.62 mg/kg/injection, schedule: Q01DX009 (ip), vehicle: saline, higher = longer survival) is 113 % of control; the T/C (endpoint: median survival time, dose: 2.5 mg/kg/injection, schedule: Q01DX009 (ip), vehicle: saline, higher = longer survival) is 91 % of control.
